Results reported in publication PMC12613848, “First in human phase 1 study of DT2216, a selective BCL-xL degrader, in patients with relapsed/refractory solid malignancies” (Journal of Hematology & Oncology, 2025).

What was measured:
advanced solid tumors = test: Efficacy in patients (RECIST v1.1, Kaplan-Meier survival); assay type: in vivo, human
From the text: The primary objective of the escalation phase was to determine the recommended phase 2 dose (RP2D) for DT2216. The secondary objectives were to characterize the adverse event (AE) profile, determine the pharmacokinetic profile (PK)/pharmacodynamic profile (PD) and describe preliminary evidence of efficacy using objective response rate (ORR), disease control rate (DCR), and progression-free survival (PFS) based on Response Evaluation Criteria in Solid Tumors (RECIST) v1.1. Exploratory objectives were to characterize the baseline and on-treatment expression of BCL-XL and VHL on blood lymphocytes, as well as other circulating biomarkers. Exploratory objectives included characterizing the baseline and on-treatment changes in platelet count and correlating them with DT2216 drug levels.
Patients were allowed a maximum of two intra-patient dose escalations. Patients received DT2216 by intravenous infusion on days 1 and 4 weekly for at least 4 weeks, with each cycle consisting of a 28-day cycle for a maximum duration of 1 year until disease progression, unacceptable toxicity, or other withdrawal criteria, as listed in the protocol. The extent of disease was evaluated using imaging studies and disease-appropriate tumor markers every 8 weeks from day 1 of the first cycle. RP2D was established based on MTD as well as other relevant data, including clinical signals of activity, PK, and PD data.
(§1) Premedication prior to each infusion was at the discretion of the investigator or according to institutional guidelines. Patient assessment and follow-up procedures can be found in the schedule of assessments in this study. The clinical response was evaluated using RECIST v1.1 per protocol. Blood samples were collected for PK analysis before and after post-infusion at defined intervals, along with platelet counts. Exploratory biomarkers include (but are not limited to) the assessment of BCL-XL and VHL levels in peripheral white blood cells (WBC).
Descriptive statistics were used to display dose escalation data and results. Continuous variables, including baseline characteristics, will be summarized by reporting the number of observations, mean, standard deviation, median, minimum, and maximum values. Categorical/discrete variables will be summarized using frequency tables that show the number and percentage of subjects within a category. Time-to-event analysis was performed using the Kaplan–Meier method. The overall response rate (ORR) and its 2-sided 95% confidence interval (CI) were calculated using the Clopper-Pearson method.

VHL = biological target: T1, VHL (Homo sapiens, UniProt P40337); test: VHL expression in peripheral white blood cells of patients; assay type: in vivo; conditions: 0.4 mg/kg IV, 4 patients, after C1D1
T1 construct: assessment of BCL-XL and VHL levels in peripheral white blood cells (WBC); endogenous in cells; host or cells: peripheral white blood cells of trial patients
Experimental: as §1
Fig. 6 Changes in BCL-XL and VHL expression after infusion of DT2216 at 0.4 mg/kg in 4 patients. […] Right panel depicts fold changes in VHL expression in the same patients after infusion of DT2216.

H146 cells (SCLC) = test: In vitro IC90, H146 cells; assay type: cell-based; conditions: Homo sapiens, NCI-H146, DT2216 alone
Experimental: Fig. 7 Mean Plasma concentration of DT2216 in 4 patients infused with DT2216 at 0.4 mg/kg over time against in vitro inhibitory concentration 90%(IC90) for various cell lines. SCLC – small cell lung cancer; OC- ovarian carcinoma; T-ALL – T cell acute lymphoblastic leukemia, CTCL – Cutaneous T cell lymphoma TEXT PRINTED IN THE PICTURE: DT2216: IC90 (≈ 1000 nM) for H146 cells (SCLC); IC90 (< 1000 nM) for OVCAR4 cells (OC); IC90 (≈ 500 nM) for MOLT-4 cells (T-ALL); IC90 (< 100 nM) for OVCAR4 cells (OC)* (*In combination with Carboplatin); IC90 (≈ 100 nM) for H146 cells (SCLC)** (**In combination with SN-38/irinotecan); IC90 (30 nM) for Myla cells (CTCL)

[1] = Cohort 1 (0.04 mg/kg), 1 treated
[2] = Cohort 2 (0.08 mg/kg), 1 treated
[3] = Cohort 3 (0.12 mg/kg), 1 treated
[4] = Cohort 4 (0.24 mg/kg), 7 treated
[5] = Cohort 5 (0.32 mg/kg), 6 treated
[6] = Cohort 6 (0.40 mg/kg), 4 treated

T1 sequence (P40337 whole entry): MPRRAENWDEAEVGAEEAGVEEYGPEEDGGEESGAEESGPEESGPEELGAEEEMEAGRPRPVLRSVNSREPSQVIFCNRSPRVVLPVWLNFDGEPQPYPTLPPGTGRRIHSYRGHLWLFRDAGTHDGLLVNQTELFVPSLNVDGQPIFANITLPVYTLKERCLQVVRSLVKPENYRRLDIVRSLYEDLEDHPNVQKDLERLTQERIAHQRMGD

## Cc1ncsc1-c1ccc([C@H](C)NC(=O)[C@@H]2C[C@@H](O)CN2C(=O)[C@@H](NC(=O)CCCCCC(=O)N2CCN(CC[C@H](CSc3ccccc3)Nc3ccc(S(=O)(=O)NC(=O)c4ccc(N5CCN(CC6=C(c7ccc(Cl)cc7)CCC(C)(C)C6)CC5)cc4)cc3S(=O)(=O)C(F)(F)F)CC2)C(C)(C)C)cc1 [DT2216]
Advanced solid tumors; 15/20 patients
  patients who discontinued treatment because of objective disease progression: 75%
Advanced solid tumors; 20 patients, 0.04 to 0.4 mg/kg IV BIW
  stable disease (best response per RECIST v1.1), share of patients: 20%
Advanced solid tumors; [1]
  Treatment discontinuation: Clinical progression of neoplastic disease (subjects): 1
  Treatment discontinuation: Objective progression of neoplastic disease (subjects): 0
Advanced solid tumors; [2]
  Treatment discontinuation: Clinical progression of neoplastic disease (subjects): 0
  Treatment discontinuation: Objective progression of neoplastic disease (subjects): 1
Advanced solid tumors; [3]
  Treatment discontinuation: Clinical progression of neoplastic disease (subjects): 0
  Treatment discontinuation: Objective progression of neoplastic disease (subjects): 1
Advanced solid tumors; [4]
  Treatment discontinuation: Clinical progression of neoplastic disease (subjects): 2
  Treatment discontinuation: Objective progression of neoplastic disease (subjects): 4
Advanced solid tumors; [5]
  Treatment discontinuation: Clinical progression of neoplastic disease (subjects): 1
  Treatment discontinuation: Objective progression of neoplastic disease (subjects): 5
Advanced solid tumors; [6]
  Treatment discontinuation: Clinical progression of neoplastic disease (subjects): 0
  Treatment discontinuation: Objective progression of neoplastic disease (subjects): 4
Advanced solid tumors; Kaplan–Meier, 95% CI 4.0 – NE
  median overall survival: 7.9 months
Advanced solid tumors; Total, 20 treated
  Treatment discontinuation: Clinical progression of neoplastic disease (subjects): 4
  Treatment discontinuation: Objective progression of neoplastic disease (subjects): 15
Advanced solid tumors; human, in vivo
  median duration of response (stable disease): 107 days
Advanced solid tumors; one person, non-small cell lung adenocarcinoma, 0.24 mg/kg, after C4
  target liver lesions versus baseline: decrease in size of target liver lesions
Advanced solid tumors; patients with different advanced solid tumors
  single-agent activity: did not demonstrate single-agent activity
VHL
  VHL expression in peripheral WBCs: did not demonstrate a simultaneous drop
H146 cells (SCLC)
  IC90: ~1000 nM
